Source: US20100210558A1, “MINIGASTRIN AS A THERAPEUTIC AGENT” (priority 2007, published 2010)
Where no end group is shown, it is not given here.

Test system: drug-resistant Mycobacterium tuberculosis
Details: 5 micrograms per ml

## LEEEEEAYGWMDF-NH2 [Minigastrin I]
  % inhibition: 0.0%
